These results are taken from patent US6274594A, “Isoquinoline derivatives and their therapeutical use” (SmithKline Beecham p.l.c., priority 1997, dated 2001).

SMILES strings stand for the structures.

In assay [1] the target is novel receptor obtainable from rat forebrain tissue. In words: [3H]-Compound A radioligand binding assay. As to conditions: competition with [3H]-Compound A (usually 20 nM). How it is done:
WO 92/22293 (SmithKline Beecham) discloses compounds having anti-convulsantactivity, including inter alia the compound trans-(+)-6-acetyl-4S-(4-fluorobenzoylamino)-3,4-dihydro-2,2-dimethyl-2H-1-benzopyran-3R-ol (hereinafter referred to as Compound A). […] The affinity of test compounds to the novel receptor site is assessed as follows.
Whole forebrain tissue is obtained from rats. The tissue is first homogenised in buffer (usually 50 mM Tris/HCl, pH 7.4). The homogenised tissue is washed by centrifugation and resuspension in the same buffer, then stored at -70° C. until used.
To carry out the radioligand binding assay, aliquots of tissue prepared as above (usually at a concentration of 1-2 mg protein/ml) are mixed with aliquots of [3H]-Compound A dissolved in buffer. The final concentration of [3H]-Compound A in the mixture is usually 20 nM. The mixture is incubated at room temperature for 1 hour. [3H]-Compound A bound to the tissue is then separated from unbound [3H]-Compound A by filtration through Whatman GF/B glass fibre filters. The filters are then washed rapidly with ice-cold buffer. The amount of radioactivity bound to the tissue trapped on the filters is measured by addition of liquid scintillation cocktail to the filters followed by counting in a liquid scintillation counter. […]

In assay [2] the test system is electrically-induced seizures (maximal electroshock seizure threshold). In words: Maximal electroshock seizure (MEST) threshold test, rat model. The assay is classed as in vivo. Particulars: 2 mg/kg p.o., suspension in methyl cellulose, one hour post dosing, statistically significant. How it is done:
The maximal electroshock seizure (MEST) threshold test in rodents is particularly sensitive for detecting potential anticonvulsant properties^1. In this model, anticonvulsant agents elevate the threshold to electrically-induced seizures whilst proconvulsants lower the seizure threshold.
Mice (naive male, Charles River, U.K. CD-1 strain, 25-30 g) are randomly assigned to groups of 10-20 and dosed orally or intraperitoneally at a dose volume of 10 ml/kg with various doses of compound (0.3-300 mg/kg) or vehicle. Mice are then subjected at 30 or 60 min post dose to a single electroshock (0.1 sec, 50 Hz, sine wave form) administered via corneal electrodes. The mean current and standard error required to induce a tonic seizure in 50% (CC50) of the mice in a particular treatment group is determined by the `up and down` method of Dixon and Mood (1948)^2. Statistical comparisons between vehicle- and drug-treated groups are made using the method of Litchfield and Wilcoxon (1949)^3.
The threshold for maximal (tonic hindlimb extension) electroshock seizures in male rats (Sprague Dawley, 80-150 g, 6 weeks old) was determined by a Hugo Sachs Electronik stimulator which delivered a constant current (0.3 sec duration; from 1-300 mA in steps of 5-20 mA). […]
The percentage increase or decrease in CC50 for each group compared to the control is calculated. […]
A general note: Protection in the maximal electroshock model is a classic sign of anticonvulsant action.

For the molecule `CN1CCc2ccc(NC(=O)N3CCc4ccccc43)cc2C1` [Example 1, 2,3-Dihydroindole-1-carboxylic Acid (2-methyl-1,2,3,4-tetrahydroisoquinolin-7-yl)amide], the pKi value entry in assay [1] is listed as “greater than 8”. Also, the “increase in seizure threshold (CC50) compared to control” value in assay [2] is on record as 225%.
